Test results reported in patent US6949679B1, “Polyamine transport inhibitors” (Universite Laval, priority 1998, dated 2005).

Tests used:
polyamine transporter [1] = assay: Inhibition of [3H]spermidine uptake in CHO-K1 cells; format: cell-based, Chinese hamster; conditions: MESC thioether derivatives
Procedure: To 1 ml of an extemporaneously prepared, DTT-free solution of MESC (20 mM in […]) were added 50 μl of 50 mM Tris-HCl (pH 7.0) and 105 μl of a 40 mM solution of either iodoacetamide, LY iodoacetamide or ASIB in a light-protected microcentrifuge tube, and the mixture was incubated for 2 hours at 37° C. […] Excess iodoacetamide was then inactivated by adding DTT to a final concentration of 40 mM and incubating the solution for 2 hours at 37° C. […] The effect of the respective DTT-inactivated iodoacetamide on spermidine transport was determined in parallel by incubating cells with the same reaction mixture from which MESC was omitted. […] J. Biol. […] Cells were then lysed with 200-μl aliquot of 1 N NaOH and incubated for 30 minutes at 60° C. After neutralization with 200 μl of 1 N HCl, radioactivity was determined from a 250-μl of the cell lysate by scintillation counting. Uptake activity was expressed per amount of total cellular protein as determined by the method of Bradford (Bradford, M. M. 1976. Anal. Biochem. 72: 248-254). […] K[…] Ki and Vmax values were then estimated by Lineweaver-Burke analysis. For competitive inhibitors, Ki values were also estimated by measuring uptake activity in the presence of logarithmically increasing concentrations of antagonist, and using the Cheng-Prusoff equation (Cheng, Y.-C. and Prusoff, W. H. 1973. Biochem. Pharmacol. 22: 3099-3108) by iterative curve fitting for a sigmoidal curve. For mixed competitive/noncompetitive inhibition, two methods were used to calculate kinetic constants. […] C. 1976. Enzymes, 3rd Ed., Academic Press, San Diego, Calif.). […] C. 1976. Enzymes, 3rd Ed., Academic Press, San Diego, Calif.). Intracellular Accumulation

ZR-75-1 cells [2] = assay: Reversal of DFMO-induced growth inhibition by exogenous spermidine; format: cell-based, human; conditions: Homo sapiens, ZR-75-1, 264 h; 1 mM DFMO, 11-day incubation
Procedure: (§1) For growth studies, ZR-75-1 cells were cultured in MEZR medium or in phenol red-free RPMI 1640 supplemented with 2 mM L-glutamine, 1 mM sodium pyruvate, 15 mM Hepes, antibiotics, 1 nM 17β-estradiol, 0.5 μg of bovine insulin per ml and 5% (v/v) charcoal-treated fetal bovine serum (SD medium), as indicated in the text. When polyamines or polyamine analogs were added to serum-containing media, 1 mM aminoguanidine was added to inhibit bovine serum amine oxidase (BSAO) activity (Morgan, D. M. L. 1989, in The Physiology of Polyamines (Bachrach, U., and Heimer, Y. M. eds) Vol. I, pp. 203-229, CRC Press, Boca Raton). The effect of the transport inhibitors on cell growth was measured by incubating ZR-75-1 cells for 11 days in medium supplemented with antagonist, polyamines and/or 1 mM DFMO as indicated, followed by colorimetric determination of DNA content with 3,4-diaminobenzoic acid (Simard, J., Dauvois, S., Haagensen, D. E., Lėvesque C., Mėrand, Y. and Labriė, F. 1990. Endocrinology 126: 3223-3231).
This possibility was assessed by comparing the ability of DESC to prevent the reversal of DFMO-induced growth inhibition by increasing concentrations of exogenous spermidine.

in vitro = conditions: human
Source text: FIG. 34 represents the relative cytotoxicity of sym-norspermidine (NSpd), BABAC and TADAX in ZR-75-1 human breast cancer cells. Data are the mean±SD of triplicate determinations from a representative experiment.

ZR-75-1 cells [3] = assay: Effect on ZR-75-1 cell proliferation (11 days, DNA content); format: cell-based, human; conditions: 1 mM
Procedure: as §1, with “3223-3231). Medium was changed every other day in these experiments because of the slow reaction of the compound with an unknown component present in the IMEM and RPMI 1640 medium formulation.” for “3223-3231).”
The biocompatibility of DESC, MESC, and DEASC was thus evaluated during a long-term (11-day) incubation with ZR-75-1 cells grown in RPMI 1640 containing 10% (v/v) FBS in the absence and presence of 1 mM aminoguanidine. […] Weak growth inhibition caused by the mixed MESC-cysteamine disulfide, however, apparently involved degradation by a copper amine oxidase.

polyamine transporter [4] = assay: Inhibition of [14C]spermine uptake in ZR-75-1 cells; format: cell-based, human; conditions: FIG. 32, read-out: Apparent Ki, spermine uptake
Procedure: The rate of putrescine and spermidine transport was determined in ZR-75-1 cells incubated in serum-free RPMI 1640 medium as described (Lessard, M., Zhao, C., Singh, S. M. and Poulin, R. 1995. J. Biol. Chem. 270: 1685-1694), using [^3H]putrescine (30 Ci/mol) and [^3H]spermidine (20 Ci/mol), respectively as substrates for a 20 minute-assay period. […] Uptake activity was expressed per amount of DNA as fluorometrically determined using 3,4-diaminobenzoic acid (Simard, J., Dauvois, S., Haagensen, D. E., Lėvesque, C., Mėrand, Y. and Labrie, F. 1990. Endocrinology, 126: 3223-3231). For the determination of spermidine uptake activity in CHO-K1 cells, 80% confluent cell monolayers were rinsed twice with PBS and incubated for 20 minutes at 37° C. in 400 μl of buffer A (20 mM Tris-HCl, pH 7.4; 0.42 mM CaCl2; 0.41 mM MgSO4; 103 mM NaCl; 5.7 mM KCl; 1.1 mM D-glucose) containing 5 μM [^3H]spermidine (20 Ci/mol). Cell cultures were then washed twice with 1 ml PBS containing 5.7 mM sym-norspermidine. Cells were then lysed with 200-μl aliquot of 1 N NaOH and incubated for 30 minutes at 60° C. After neutralization with 200 μl of 1 N HCl, radioactivity was determined from a 250-μl of the cell lysate by scintillation counting. Uptake activity was expressed per amount of total cellular protein as determined by the method of Bradford (Bradford, M. M. 1976. Anal. Biochem. 72: 248-254). Non-specific binding of radioactive substrate was similarly determined in parallel for both cell lines after a 15 second-incubation with 400 μl of ice-cold uptake solution.
(§2) Kinetic analysis of polyamine transport was performed by determining uptake activity in the presence of a 3 μM [^3H]putrescine or 1 μM [^3H]spermidine plus increasing concentrations of nonradioactive substrate. K[…] Ki and Vmax values were then estimated by Lineweaver-Burke analysis. For competitive inhibitors, Ki values were also estimated by measuring uptake activity in the presence of logarithmically increasing concentrations of antagonist, and using the Cheng-Prusoff equation (Cheng, Y.-C. and Prusoff, W. H. 1973. Biochem. Pharmacol. 22: 3099-3108) by iterative curve fitting for a sigmoidal curve. For mixed competitive/noncompetitive inhibition, two methods were used to calculate kinetic constants. First, the equation [drawing 2] where v, s, and i are the transport velocity, substrate concentration and inhibitor concentration respectively, was used to calculate the inhibition constants for inhibitor/carrier complex formation (Ki) and carrier/inhibitor/substrate complex formation (Ki′) (Dixon, M. and Webb, E. C. 1976. Enzymes, 3rd Ed., Academic Press, San Diego, Calif.). Alternatively, the value of Ki for a mixed competitor/non-competitor was estimated from the intersect of equations v^−1 vs i at two different substrate concentrations (Dixon, M. and Webb, E. C. 1976. Enzymes, 3rd Ed., Academic Press, San Diego, Calif.). Intracellular Accumulation
(§3) In order to evaluate the effectiveness of dimeric triamines as polyamine transport inhibitors, we synthesized N,N′-bis(3-aminopropyl),N,N′-bis(4-aminobutyl)cystamine or BABAC (structure 1, FIG. 25; FIG. 31), and its thiol form N-(3-aminopropyl),N-(4-aminobutyl)cysteamine or AAC (FIG. 31) according to Scheme 4 described above (FIG. 30), using spermidine as a precursor polyamine. The ability of BABAC and AAC to inhibit the intracellular uptake of radio-labeled putrescine and spermidine in the ZR-75-1 human breast cancer cell line was then determined according to standard published procedures (Lessard, et al. and Poulin, et al.) Briefly, ZR-75-1 cells were grown for four days in twenty-four well plates in RPMI 1640 medium supplemented with 10% fetal bovine serum.

polyamine transporter [5] = assay: Inhibition of [3H]spermidine uptake in ZR-75-1 cells; format: cell-based, human; conditions: FIG. 32, 20 μM and 3 μM substrate, respectively, read-out: Apparent Ki, spermidine uptake
Procedure: (§4) The rate of putrescine and spermidine transport was determined in ZR-75-1 cells incubated in serum-free RPMI 1640 medium as described (Lessard, M., Zhao, C., Singh, S. M. and Poulin, R. 1995. J. Biol. Chem. 270: 1685-1694), using [^3H]putrescine (30 Ci/mol) and [^3H]spermidine (20 Ci/mol), respectively as substrates for a 20 minute-assay period. Spermine uptake was similarly determined, using 1 μM [^14C]spermine (32 Ci/mol) as substrate. Uptake activity was expressed per amount of DNA as fluorometrically determined using 3,4-diaminobenzoic acid (Simard, J., Dauvois, S., Haagensen, D. E., Lėvesque, C., Mėrand, Y. and Labrie, F. 1990. Endocrinology, 126: 3223-3231). For the determination of spermidine uptake activity in CHO-K1 cells, 80% confluent cell monolayers were rinsed twice with PBS and incubated for 20 minutes at 37° C. in 400 μl of buffer A (20 mM Tris-HCl, pH 7.4; 0.42 mM CaCl2; 0.41 mM MgSO4; 103 mM NaCl; 5.7 mM KCl; 1.1 mM D-glucose) containing 5 μM [^3H]spermidine (20 Ci/mol). Cell cultures were then washed twice with 1 ml PBS containing 5.7 mM sym-norspermidine. Cells were then lysed with 200-μl aliquot of 1 N NaOH and incubated for 30 minutes at 60° C. After neutralization with 200 μl of 1 N HCl, radioactivity was determined from a 250-μl of the cell lysate by scintillation counting. Uptake activity was expressed per amount of total cellular protein as determined by the method of Bradford (Bradford, M. M. 1976. Anal. Biochem. 72: 248-254). Non-specific binding of radioactive substrate was similarly determined in parallel for both cell lines after a 15 second-incubation with 400 μl of ice-cold uptake solution.
as §2, with “Alternatively, the value of Ki for a mixed competitor/non-competitor was estimated from the intersect of equations v^−1 vs i at two different substrate concentrations (Dixon, M. and Webb, E. C. 1976. Enzymes, 3rd Ed., Academic Press, San Diego, Calif.). Intracellular Accumulation” left out
as §3

polyamine transporter [6] = assay: Inhibition of [3H]putrescine uptake in ZR-75-1 cells; format: cell-based, human; conditions: ZR-75-1 cells, FIG. 32; 20 μM and 3 μM substrate, respectively; read-out: Apparent Ki, putrescine uptake
Procedure: as §4, §2, §3

ZR-75-1 cells [7] = assay: Time course of intracellular [3H]spermidine accumulation in presence of transport antagonists; format: cell-based, human; conditions: 200 μM CHX, after 4 hours
Procedure: The time course of intracellular accumulation of spermidine in the presence of transport antagonists was determined by incubating ZR-75-1 cells in 24-well plates with DESC (50 or 200 μM) or MESC (200 μM) in dissolved in MEZR medium containing 5 μM [^3H]spermidine in the presence or absence of cycloheximide (CHX, 200 μM), and harvesting at the indicated times for the determination of intracellular radioactive contents, as described above for polyamine uptake assays.

With `[N-]=[N+]=Nc1ccc(C(=O)NCCCCNC(=O)CSCCNC(=O)C(CCCNCCCN)NCCCN)c(O)c1` (centres unmarked) [MESC-ASIB] the “Ki toward spermidine uptake compared with MESC” value (polyamine transporter [1]) was “virtually identical to that of MESC”.
`NCCCC(N)(C(=O)O)C(F)F` (racemic) [DFMO, D,L-α-difluoromethylornithine] gave an inhibition at 1000 µM (ZR-75-1 cells [2]) of ~50%.
With `NCCCNCCCN` [sym-norspermidine, N-(3-aminopropyl)-1,3-diaminopropane, reference compound] the IC50 (in vitro) was 6.4 µM.
For `NCCCNCCCC(NCCCN)C(=O)NCCSCC(=O)NCCN1C(=O)c2cc(S(=O)(=O)O)cc3c(N)c(S(=O)(=O)O)cc(c23)C1=O` (centres unmarked) [MESC-LY], the “Ki toward spermidine uptake compared with MESC” value (polyamine transporter [1]) was “virtually identical to that of MESC”.
With `N=C(N)NN` [aminoguanidine, reference compound] the “Effect of aminoguanidine alone on cell growth” value (ZR-75-1 cells [3]) was “slight inhibitory effect”.
With `NCCCNCCCC(NCCCN)C(=O)NCCSCC(N)=O` (centres unmarked) [MESC-acetamide] the “Ki toward spermidine uptake compared with MESC” value (polyamine transporter [1]) was “virtually identical to that of MESC”.
`NCCCCN(CCS)CCCN` [AAC, N-(3-aminopropyl),N-(4-aminobutyl)cysteamine] showed a Ki (polyamine transporter [4]) of 3.9 µM, a Ki (polyamine transporter [5]) of 4.37 µM and a Ki (polyamine transporter [6]) of 0.54 µM.
Compound `NCCCCN(CCCN)CCSSCCN(CCCN)CCCCN` [BABAC, N,N′-bis(3-aminopropyl),N,N′-bis(4-aminobutyl)cystamine] has a Ki (polyamine transporter [4]) of 2.1 µM, a Ki (polyamine transporter [5]) of 0.68 µM and a Ki (polyamine transporter [6]) of 0.15 µM. The IC50 (in vitro; ZR-75-1 cells) was 17 µM.
With `C[C@@H]1C[C@@H]([C@H](O)CC2CC(=O)NC(=O)C2)C(=O)[C@@H](C)C1` [CHX, cycloheximide, reference compound] the “Increase in spermidine accumulation” value (ZR-75-1 cells [7]) was 4 fold.
